Drawing on PubChem BioAssay (NCI), this text covers TGI for 11 compounds.

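These data come from cells grown in 96-well plates and exposed to compound for 48 hours at five concentrations. TGI denotes the concentration required for complete inhibition of growth.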

Some test systems named below: HCC-2998 colon; T-47D breast; SNB-75 CNS; HS 578T breast; HT29 colon; BT-549 breast; UACC-62 melanoma; SF-539 CNS; SR leukemia; OVCAR-5 ovarian; K-562 leukemia; A549 NSCLC; NCI/ADR-RES ovarian; HOP-92 NSCLC; MDA-MB-231 breast; PC-3 prostate; ACHN renal; NCI-H23 lung; NCI-H460 lung; SK-OV-3 ovarian.
Assay in all cases: NCI anticancer screen, dose series, 48 h

As for `CC(=O)OCC1OC(n2c(C)cc(C)c(C#N)c2=S)C(OC(C)=O)C(OC(C)=O)C1OC(C)=O` (stereo not drawn), the TGI in the test on HCC-2998 colon, in the test on T-47D breast, with SNB-75 CNS, with HS 578T breast, with HT29 colon and in the test on BT-549 breast was more than 100 µM throughout. Besides, the TGI with UACC-62 melanoma, with SF-539 CNS, in the test with SR leukemia, in the test on OVCAR-5 ovarian, in the test on K-562 leukemia and with A549 NSCLC was more than 100 µM each time. Further, the TGI with NCI/ADR-RES ovarian, in the test on HOP-92 NSCLC, in the test with MDA-MB-231 breast, with PC-3 prostate, in the test with ACHN renal and in the test on NCI-H23 lung was more than 100 µM each time. Besides, the TGI with NCI-H460 lung is more than 100 µM.

Consider `O=c1nc(N2CCNCC2)oc2cc(Cl)oc(=O)c12`, for which the TGI in the test with HCC-2998 colon was 25.1 µM; in the test with T-47D breast, more than 21.7 µM; in the test on SNB-75 CNS, 17.4 µM; with HS 578T breast, 5.9 µM; in the test on SK-OV-3 ovarian, 33.2 µM; in the test with HT29 colon, 12.9 µM. In addition, the TGI in the test on BT-549 breast was 6.26 µM; in the test with UACC-62 melanoma, 25.2 µM; in the test with SF-539 CNS it was 11.8 µM; in the test with SR leukemia, 4.41 µM; in the test on OVCAR-5 ovarian it was 30 µM; in the test with K-562 leukemia it was more than 27.4 µM. For the same compound, the TGI with A549 NSCLC stood at 20.2 µM; in the test with NCI/ADR-RES ovarian it was 25.8 µM; in the test with HOP-92 NSCLC, 15.6 µM; in the test on MDA-MB-231 breast, 35.7 µM; in the test with PC-3 prostate, 19.9 µM; with ACHN renal it was 23.5 µM. Besides, the TGI with NCI-H23 lung came out at 27 µM; with NCI-H460 lung it was 22.4 µM.

As for `CCC(=O)O[C@H]1CC[C@H]2[C@@H]3CCC4=C/C(=N/OC(=O)c5cccc6cc7ccccc7nc56)CC[C@]4(C)[C@H]3CC[C@]12C`, the TGI with HCC-2998 colon is more than 100 µM; in the test on T-47D breast, 67.6 µM; in the test on SNB-75 CNS it was more than 100 µM; in the test on HS 578T breast it was more than 100 µM; in the test on SK-OV-3 ovarian, more than 100 µM; in the test with HT29 colon, more than 100 µM. Moreover, the TGI with BT-549 breast, with UACC-62 melanoma, in the test with SF-539 CNS, in the test with SR leukemia, in the test on OVCAR-5 ovarian and with K-562 leukemia was more than 100 µM each time. The TGI with A549 NSCLC, in the test with NCI/ADR-RES ovarian, in the test on HOP-92 NSCLC, in the test with MDA-MB-231 breast, with PC-3 prostate and in the test with ACHN renal was more than 100 µM throughout. Besides, the TGI in the test with NCI-H23 lung and in the test on NCI-H460 lung was more than 100 µM each time.

As for `COc1cccc2nc3c(C(=O)NCCN(C)C)cccc3cc12`, the TGI with HCC-2998 colon was determined as 12.3 µM; in the test on T-47D breast, 16.7 µM; in the test with SNB-75 CNS it was 14.4 µM; with HS 578T breast it was 7.5 µM; with SK-OV-3 ovarian, 4.94 µM; in the test with HT29 colon it was 7.61 µM. The TGI in the test on BT-549 breast was determined as 10.7 µM; with UACC-62 melanoma, 7.77 µM; in the test on SF-539 CNS it was 7.9 µM; with SR leukemia it was 3.15 µM; with OVCAR-5 ovarian, 6.5 µM; in the test with K-562 leukemia, 13.9 µM. Moreover, the TGI in the test on A549 NSCLC is 4.49 µM; in the test on NCI/ADR-RES ovarian, 9.17 µM; with HOP-92 NSCLC, 11.2 µM; in the test with MDA-MB-231 breast, 9.27 µM; with PC-3 prostate it was 10.2 µM; with ACHN renal, 2.85 µM. In addition, the TGI in the test on NCI-H23 lung turned out to be 6.05 µM; in the test on NCI-H460 lung, 4.44 µM.

In the case of `CC(C)=CCC/C(C)=C/CC/C(C)=C/CC(CO)N(C)CC/C=C(\C)CCC=C(C)C` (stereo not drawn), the TGI with HCC-2998 colon amounted to 10.8 µM; with T-47D breast, 10.7 µM; in the test with SNB-75 CNS, 25 µM; with HS 578T breast, 16.7 µM; in the test on SK-OV-3 ovarian, 28.9 µM; in the test on HT29 colon, 14.4 µM. In addition, the TGI came to 27.5 µM with BT-549 breast; 29.9 µM with UACC-62 melanoma; 9.76 µM with SF-539 CNS; 4.8 µM in the test with SR leukemia; 21.2 µM in the test with OVCAR-5 ovarian; 3.7 µM in the test on K-562 leukemia. Further, the TGI with A549 NSCLC amounted to 17.5 µM; in the test with NCI/ADR-RES ovarian, 16.4 µM; with HOP-92 NSCLC, 8.85 µM; with MDA-MB-231 breast, 22.6 µM; in the test with PC-3 prostate, 20.2 µM; with ACHN renal, 23.8 µM. Further, the figures for the TGI with NCI-H23 lung and in the test on NCI-H460 lung were 21.8 µM and 15.8 µM, respectively.

In the case of `O=C(O)CCSC(CC1(c2ccc(Cl)cc2)NC(=O)CCS1)c1ccccc1` (stereo not drawn), the TGI in the test on HCC-2998 colon is 39.6 µM; in the test with T-47D breast, more than 60 µM; in the test on SNB-75 CNS, 32.3 µM; in the test on HS 578T breast it was 33.4 µM; in the test on SK-OV-3 ovarian it was 38 µM; with HT29 colon it was 38.1 µM. Also, the TGI was 31.1 µM in the test with BT-549 breast; 39.7 µM in the test on UACC-62 melanoma; 27.3 µM in the test on SF-539 CNS; more than 100 µM with SR leukemia; 37 µM in the test with OVCAR-5 ovarian; more than 100 µM in the test on K-562 leukemia. Moreover, the TGI is more than 63.1 µM with A549 NSCLC; 49.3 µM with NCI/ADR-RES ovarian; 62.2 µM with HOP-92 NSCLC; 46.6 µM in the test with MDA-MB-231 breast; 37.3 µM in the test with PC-3 prostate; more than 59.4 µM in the test with ACHN renal. Besides, the figures for the TGI in the test on NCI-H23 lung and in the test on NCI-H460 lung were 50.1 µM and 64.7 µM, respectively.

Consider `COc1ccc(/C=C2\c3cc(OC)c(OC)cc3CCN2C(=O)c2ccccc2)cc1OC`, for which the TGI with HCC-2998 colon was more than 100 µM; in the test on T-47D breast, 86.8 µM; in the test with SNB-75 CNS, more than 100 µM; with HS 578T breast it was more than 100 µM; with HT29 colon, more than 100 µM; in the test on BT-549 breast, more than 100 µM. Further, the TGI in the test on UACC-62 melanoma, in the test on SF-539 CNS, in the test on SR leukemia, in the test on OVCAR-5 ovarian, in the test on K-562 leukemia and with A549 NSCLC was more than 100 µM each time. In addition, the TGI was 76.4 µM in the test on NCI/ADR-RES ovarian; more than 100 µM with HOP-92 NSCLC; more than 100 µM in the test with MDA-MB-231 breast; more than 100 µM in the test on PC-3 prostate; more than 100 µM in the test with ACHN renal; more than 100 µM in the test on NCI-H23 lung. Further, the TGI in the test with NCI-H460 lung came out at 87.6 µM.

In the case of `CC(C)[Si]1(C(C)C)OCC2OC3(CO)C(Oc4nc(=O)ccn43)C2O[Si](C(C)C)(C(C)C)O1` (stereo not drawn), the TGI with HCC-2998 colon amounted to 25.4 µM; in the test on T-47D breast, 24 µM; with SNB-75 CNS, 30.7 µM; in the test with HS 578T breast, 45.9 µM; in the test on SK-OV-3 ovarian, 36.3 µM; in the test on HT29 colon it was 27.2 µM. Also, the TGI was 24.9 µM in the test on BT-549 breast; 26.8 µM with UACC-62 melanoma; 28.3 µM in the test with SF-539 CNS; 47.1 µM with SR leukemia; 45.5 µM with K-562 leukemia; 41.6 µM in the test on NCI/ADR-RES ovarian. The TGI in the test on HOP-92 NSCLC was 32.2 µM; in the test on MDA-MB-231 breast it was 23.2 µM; in the test on PC-3 prostate, 17.7 µM; in the test with ACHN renal, 29.3 µM; with NCI-H23 lung, 30.1 µM; in the test with NCI-H460 lung it was 29.2 µM.

For the compound `NCC(=O)Nc1ccc(S(=O)(=O)O)c2cc(S(=O)(=O)O)cc(S(=O)(=O)O)c12`, the TGI with HCC-2998 colon, with T-47D breast, in the test with SNB-75 CNS, with HS 578T breast, in the test with SK-OV-3 ovarian and in the test with HT29 colon was more than 100 µM each time. The TGI in the test with BT-549 breast, in the test with UACC-62 melanoma, with SF-539 CNS, in the test with SR leukemia, in the test with OVCAR-5 ovarian and in the test on K-562 leukemia was more than 100 µM in each case. For the same compound, the TGI in the test on A549 NSCLC, with NCI/ADR-RES ovarian, with HOP-92 NSCLC, in the test with MDA-MB-231 breast, with PC-3 prostate and in the test on ACHN renal was more than 100 µM throughout. For the same compound, the TGI in the test with NCI-H23 lung is more than 100 µM.

On to `O=c1oc2c/c(=C\c3ccc([N+](=O)[O-])cc3)c(=O)c3cccc1c3-2`, for which the TGI is more than 100 µM in the test on HCC-2998 colon; more than 100 µM with T-47D breast; 88.6 µM in the test with SNB-75 CNS; more than 100 µM in the test on HS 578T breast; more than 100 µM in the test with SK-OV-3 ovarian; more than 100 µM in the test on HT29 colon. Besides, the TGI with BT-549 breast, in the test on UACC-62 melanoma, with SR leukemia, in the test with OVCAR-5 ovarian, in the test on K-562 leukemia and in the test on A549 NSCLC was more than 100 µM each time. The TGI with NCI/ADR-RES ovarian, in the test on HOP-92 NSCLC, in the test with MDA-MB-231 breast, in the test on PC-3 prostate, in the test with ACHN renal and in the test on NCI-H23 lung was more than 100 µM throughout. The compound also yielded a TGI in the test with NCI-H460 lung of more than 100 µM.

For `CC1C=CN(N(C)C)C2=C1C(=O)c1cnccc1C2=O` (stereo not drawn), the TGI was found to be 1.8 µM with HCC-2998 colon; 4.33 µM in the test on T-47D breast; 0.868 µM in the test on SNB-75 CNS; 3.82 µM in the test on HS 578T breast; 2.81 µM with SK-OV-3 ovarian; 2.27 µM in the test with HT29 colon. In addition, the TGI in the test on BT-549 breast turned out to be 1.66 µM; in the test on UACC-62 melanoma, 0.342 µM; with SF-539 CNS, 1.26 µM; in the test with SR leukemia, 0.196 µM; with OVCAR-5 ovarian it was 2.83 µM; in the test on A549 NSCLC it was 2.11 µM. Further, the TGI in the test with NCI/ADR-RES ovarian was determined as 4.09 µM; in the test on HOP-92 NSCLC, 3.87 µM; in the test with MDA-MB-231 breast, 2.12 µM; in the test with PC-3 prostate, 7.89 µM; in the test with ACHN renal, 1.06 µM; with NCI-H23 lung, 0.823 µM. Moreover, the TGI in the test with NCI-H460 lung came out at 0.389 µM.
